Experiments:
MC5 [1] = target: T1, MC5 (Homo sapiens, UniProt P33032); assay: Test 2. Affinity for the MC5-receptors (I125-NDP-αMSH binding); conditions: I125-NDP-αMSH as ligand; read-out: Affinity for MC-receptors Ki MC5
Protocol: (§1) Test 2. Affinity for the MC3-receptors, the MC4-receptors and the MC5-receptors
(§2) The binding assays were carried out essentially as described by Szardenings et al, J Biol Chem 1997; 272; 27943-27948 and Schiöth et al, FEBS Lett 1997; 410; 223-228 using I125-NDP-αMSH as ligand.

MC4 [2] = target: T2, MC4 (Homo sapiens, UniProt P32245); assay: Test 2. Affinity for the MC4-receptors (I125-NDP-αMSH binding); conditions: I125-NDP-αMSH as ligand; read-out: Affinity for MC-receptors Ki MC4
Protocol: as §1, §2

MC4 [3] = target: T2, MC4; assay: Test 3. cAMP stimulation, MC4; assay type: cell-based; conditions: response relative to α-MSH
Protocol: (§3) The stimulation of cAMP was carried out essentially as described by Schiöth et al, Br J Pharmacol 1998; 124; 75-82, however, the response is given relative to α-MSH.

MC3 [4] = target: T3, MC3 (Homo sapiens, UniProt P41968); assay: Test 2. Affinity for the MC3-receptors (I125-NDP-αMSH binding); conditions: I125-NDP-αMSH as ligand; read-out: Affinity for MC-receptors Ki MC3
Protocol: as §1, §2

MC5 [5] = target: T1, MC5; assay: Test 3. cAMP stimulation, MC5; assay type: cell-based; conditions: response relative to α-MSH
Protocol: as §3

MC1 = MC1 (Homo sapiens, UniProt Q01726); assay: Test 3. cAMP stimulation, MC1; assay type: cell-based; conditions: response relative to α-MSH
Protocol: as §3

MC3 [6] = target: T3, MC3; assay: Test 3. cAMP stimulation, MC3; assay type: cell-based; conditions: response relative to α-MSH
Protocol: as §3

MC1-receptor = MC1-receptor (Mus musculus, UniProt Q01727); assay: Test 1. Affinity for the MC1-receptor (I125-NDP-αMSH binding); conditions: I125-NDP-αMSH as ligand; read-out: Affinity for MC-receptors Ki MC1
Text: Test 1. Affinity for the MC1-receptor
The binding assay was cared out essentially as described by Lunec et al, Melanoma Res 1992; 2; 5-12 using I^125-NDP-αMSH as ligand.

T2 sequence (P32245 whole entry): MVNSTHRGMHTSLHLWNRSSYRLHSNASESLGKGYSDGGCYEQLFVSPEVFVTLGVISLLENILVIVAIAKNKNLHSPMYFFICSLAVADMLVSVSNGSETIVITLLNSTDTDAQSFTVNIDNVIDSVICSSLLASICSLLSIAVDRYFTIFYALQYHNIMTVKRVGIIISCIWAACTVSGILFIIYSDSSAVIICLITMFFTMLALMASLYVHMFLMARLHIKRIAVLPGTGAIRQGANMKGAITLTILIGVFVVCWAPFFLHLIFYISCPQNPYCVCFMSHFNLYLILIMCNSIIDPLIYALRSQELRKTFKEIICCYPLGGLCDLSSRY
T3 sequence (P41968 whole entry): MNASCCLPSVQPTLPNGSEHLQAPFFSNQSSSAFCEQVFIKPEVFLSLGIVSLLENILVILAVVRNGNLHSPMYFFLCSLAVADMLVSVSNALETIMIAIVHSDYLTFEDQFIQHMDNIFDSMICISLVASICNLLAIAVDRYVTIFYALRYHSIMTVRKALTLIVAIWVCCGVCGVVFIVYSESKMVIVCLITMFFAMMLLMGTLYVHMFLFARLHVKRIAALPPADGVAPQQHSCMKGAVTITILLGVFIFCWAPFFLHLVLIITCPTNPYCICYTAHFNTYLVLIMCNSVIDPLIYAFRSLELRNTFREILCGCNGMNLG
T1 sequence (P33032 whole entry): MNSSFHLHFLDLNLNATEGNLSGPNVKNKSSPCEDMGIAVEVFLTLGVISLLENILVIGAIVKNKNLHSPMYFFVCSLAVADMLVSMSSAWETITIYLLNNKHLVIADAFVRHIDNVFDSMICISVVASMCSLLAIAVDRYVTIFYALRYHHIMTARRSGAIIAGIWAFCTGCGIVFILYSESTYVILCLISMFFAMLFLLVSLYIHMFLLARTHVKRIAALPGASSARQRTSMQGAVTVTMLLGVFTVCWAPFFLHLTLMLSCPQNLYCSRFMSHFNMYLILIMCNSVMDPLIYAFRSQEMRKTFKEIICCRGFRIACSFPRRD
MC1-receptor, sequence (Q01727 whole entry): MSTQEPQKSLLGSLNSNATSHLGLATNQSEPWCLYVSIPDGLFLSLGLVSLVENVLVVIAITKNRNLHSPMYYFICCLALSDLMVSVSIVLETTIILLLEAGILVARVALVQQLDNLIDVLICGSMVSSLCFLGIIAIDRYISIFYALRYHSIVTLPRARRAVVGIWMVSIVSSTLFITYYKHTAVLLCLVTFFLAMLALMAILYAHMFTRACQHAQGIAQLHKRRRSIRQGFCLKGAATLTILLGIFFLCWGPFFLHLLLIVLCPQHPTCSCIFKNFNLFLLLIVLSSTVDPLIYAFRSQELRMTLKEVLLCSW
MC1, sequence (Q01726 whole entry): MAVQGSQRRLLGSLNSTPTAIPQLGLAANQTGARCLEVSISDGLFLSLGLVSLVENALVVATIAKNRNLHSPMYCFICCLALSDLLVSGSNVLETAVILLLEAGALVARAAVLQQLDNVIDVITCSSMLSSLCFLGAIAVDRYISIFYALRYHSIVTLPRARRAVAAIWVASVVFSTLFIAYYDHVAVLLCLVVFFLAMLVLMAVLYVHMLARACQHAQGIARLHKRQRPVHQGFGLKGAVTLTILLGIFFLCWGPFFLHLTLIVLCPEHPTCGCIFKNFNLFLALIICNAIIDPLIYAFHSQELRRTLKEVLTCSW

Compound	Ki (MC5 [1]) [µM]	Ki (MC4 [2]) [µM]	Influence on cAMP: cAMP agonist/plateau stim. α-MSH (%) MC4 (MC4 [3]) [%]	Ki (MC3 [4]) [µM]	Influence on cAMP: cAMP agonist/plateau stim. α-MSH (%) MC5 (MC5 [5]) [%]	Influence on cAMP: cAMP agonist/plateau stim. α-MSH (%) MC1 (MC1) [%]	Influence on cAMP: cAMP agonist/plateau stim. α-MSH (%) MC3 (MC3 [6]) [%]	Ki (MC1-receptor) [µM]
N=C(N)NN=Cc1cccn1-c1ccc(C(F)(F)F)cc1 [Compound 48, N-[(1-(4-Trifluoromethylphenyl)-1H-pyrrol-2-yl)methyleneamino]guanidine]	7.8	0.07	–	–	–	–	–	–
N=C(N)NN=Cc1cccn1-c1cc(Cl)cc(Cl)c1 [Compound 50, N-[(1-(3,5-dichlorophenyl)-1H-pyrrol-2-yl)methyleneamino]guanidine]	7.52	3.6	36	12.8	–	–	–	–
N-{1-[(4-Chlorophenyl)-1H-Pyrrol-2-yl]methylene-amino}guanidine [Compound 1]	17.5	5.1	118	15.6	6	30	35	0.42

Source: patent publication US7442807B2, “N-phenylpyrrole guanidine derivatives as melanocortin receptor ligands” (Action Pharma A/S, priority 2001, dated 2008)
